Measured values taken from ChEMBL document CHEMBL4190372, “Discovery of a Novel Oral Glucocorticoid Receptor Modulator (AZD9567) with Improved Side Effect Profile” (J Med Chem, 2018).

Columns and labels:
[1] = molecular target: T1, Estrogen receptor (Homo sapiens, UniProt P03372); assay: Binding affinity to human ERalpha expressed in Sf9 cells by fluoligand binding-based fluorescence polarization method
T1 sequence (P03372 whole entry): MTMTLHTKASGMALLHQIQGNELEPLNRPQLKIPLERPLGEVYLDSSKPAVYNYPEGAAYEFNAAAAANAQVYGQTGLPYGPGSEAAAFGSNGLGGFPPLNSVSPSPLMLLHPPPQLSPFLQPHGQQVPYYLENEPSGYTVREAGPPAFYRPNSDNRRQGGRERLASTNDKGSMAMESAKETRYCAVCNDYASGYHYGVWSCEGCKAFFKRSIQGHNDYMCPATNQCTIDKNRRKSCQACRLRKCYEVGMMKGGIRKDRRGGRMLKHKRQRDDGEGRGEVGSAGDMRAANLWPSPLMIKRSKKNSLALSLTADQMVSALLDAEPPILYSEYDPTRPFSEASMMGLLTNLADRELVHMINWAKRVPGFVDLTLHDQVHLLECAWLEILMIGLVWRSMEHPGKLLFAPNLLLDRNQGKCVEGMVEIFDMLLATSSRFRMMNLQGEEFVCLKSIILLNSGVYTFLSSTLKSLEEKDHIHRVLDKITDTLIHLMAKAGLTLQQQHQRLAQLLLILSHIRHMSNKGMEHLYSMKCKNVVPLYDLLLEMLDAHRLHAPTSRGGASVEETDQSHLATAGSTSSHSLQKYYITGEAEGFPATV

[2] = molecular target: T2, Glucocorticoid receptor (Homo sapiens) (UniProt P04150)
T2 sequence (whole entry): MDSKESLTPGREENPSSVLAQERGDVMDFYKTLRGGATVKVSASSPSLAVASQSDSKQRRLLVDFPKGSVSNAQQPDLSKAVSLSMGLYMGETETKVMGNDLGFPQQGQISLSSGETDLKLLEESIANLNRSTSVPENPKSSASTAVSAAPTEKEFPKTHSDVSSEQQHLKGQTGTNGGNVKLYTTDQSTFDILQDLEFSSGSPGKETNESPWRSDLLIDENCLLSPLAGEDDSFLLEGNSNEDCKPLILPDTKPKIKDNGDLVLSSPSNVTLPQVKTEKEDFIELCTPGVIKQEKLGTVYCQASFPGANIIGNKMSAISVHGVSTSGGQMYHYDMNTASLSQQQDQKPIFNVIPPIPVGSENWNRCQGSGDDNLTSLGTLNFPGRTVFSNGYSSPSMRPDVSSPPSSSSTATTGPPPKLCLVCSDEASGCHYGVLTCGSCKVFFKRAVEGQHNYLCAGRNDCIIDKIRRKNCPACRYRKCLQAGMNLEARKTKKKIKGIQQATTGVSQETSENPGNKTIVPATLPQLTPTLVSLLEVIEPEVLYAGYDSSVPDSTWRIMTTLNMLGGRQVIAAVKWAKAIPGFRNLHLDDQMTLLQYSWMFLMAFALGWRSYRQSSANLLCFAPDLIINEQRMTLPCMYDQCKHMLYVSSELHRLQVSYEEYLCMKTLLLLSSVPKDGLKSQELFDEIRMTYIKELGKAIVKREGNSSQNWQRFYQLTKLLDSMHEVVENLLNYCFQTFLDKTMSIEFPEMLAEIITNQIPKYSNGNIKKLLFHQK
Description: Transrepression of GR in cryopreserved human fetal osteoblasts assessed as inhibition of OPG mRNA expression after 4 hrs by RT-qPCR analysis

[3] = molecular target: T3, Glucocorticoid receptor (Homo sapiens, UniProt P04150); settings: blood
T3 sequence (P04150 whole entry): T2 sequence (whole entry)
Description: Therapeutic index, ratio of fIC20 for transrepression of GR in cryopreserved human fetal osteoblasts assessed as inhibition of OPG mRNA expression to fIC30 for transrepression of GR in human whole blood assessed as inhibition of LPS-induced TNF-alpha release

[4] = molecular target: T4, Progesterone receptor (Homo sapiens, UniProt P06401); assay: Displacement of [3H]progesterone from progesterone receptor in human T47D cells after 1200 mins by scintillation counting method; type: cell-based
T4 sequence (P06401 whole entry): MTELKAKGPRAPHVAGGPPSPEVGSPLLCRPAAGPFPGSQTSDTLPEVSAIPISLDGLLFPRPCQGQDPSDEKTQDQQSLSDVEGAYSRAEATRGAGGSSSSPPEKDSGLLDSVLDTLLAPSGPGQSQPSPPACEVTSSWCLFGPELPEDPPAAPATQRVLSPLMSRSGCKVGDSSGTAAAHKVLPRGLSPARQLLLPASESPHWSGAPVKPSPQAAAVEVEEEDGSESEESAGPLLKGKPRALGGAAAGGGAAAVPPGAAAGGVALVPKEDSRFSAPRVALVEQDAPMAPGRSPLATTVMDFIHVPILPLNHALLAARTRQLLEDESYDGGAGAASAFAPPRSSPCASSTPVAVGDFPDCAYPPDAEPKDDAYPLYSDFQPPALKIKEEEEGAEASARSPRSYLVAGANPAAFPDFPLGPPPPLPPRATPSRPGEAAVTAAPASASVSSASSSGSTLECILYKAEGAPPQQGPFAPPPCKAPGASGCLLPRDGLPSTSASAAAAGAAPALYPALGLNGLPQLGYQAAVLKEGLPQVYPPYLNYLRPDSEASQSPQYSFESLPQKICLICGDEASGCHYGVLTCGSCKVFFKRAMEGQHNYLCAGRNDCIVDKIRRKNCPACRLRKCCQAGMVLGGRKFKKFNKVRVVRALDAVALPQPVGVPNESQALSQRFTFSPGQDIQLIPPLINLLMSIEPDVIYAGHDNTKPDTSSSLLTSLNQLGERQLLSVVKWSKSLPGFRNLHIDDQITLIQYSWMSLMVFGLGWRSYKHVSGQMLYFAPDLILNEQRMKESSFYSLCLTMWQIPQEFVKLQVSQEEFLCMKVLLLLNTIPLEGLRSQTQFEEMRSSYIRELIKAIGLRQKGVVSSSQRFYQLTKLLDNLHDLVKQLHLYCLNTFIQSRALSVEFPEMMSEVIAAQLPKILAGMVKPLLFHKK

[5] = Cmax in Han-Wistar rat plasma at 0.8 mg/kg, po; type: ADME, organism-based; parameters: dose 0.8 mg/kg, route oral

IC50 [1]: > 100 µM | fIC20 [2]: 0.74 nM | TI [3]: 0.55 | IC50 [4]: 5.3 µM | Cmax [5]: 2000 nM
SMILES: CC(C)[C@H](NC(=O)C(C)(F)F)[C@H](Oc1ccc2c(cnn2-c2ccc(=O)n(C)c2)c1)c1ccccc1 [MIZACORAT]
